Source: patent US20130041022A1, “Glyceollins Suppress Androgen-Responsive Prostate Cancer” (UNITED STATES DEPARTMENT OF AGRICULTURE, priority 2008, published 2013)

Key:
Assay type in all cases: cell-based, human
LNCaP cells = assay: Cell cycle analysis using flow cytometry (PI), LNCaP; details: 72 hours; glyceollins 0-25 μM, genistein 25 μM
Procedure: LNCaP cells (3×10^6 cell) were plated in T-175 flask and treated with 0, 0.25, 2.5, 12.5, or 25 μM glyceollins or with and without genistein (25 μM) for 72 hr, cell cycle analysis performed as described below. Results are expressed as % of total cells (n=3).
(§1) Cell cycle analysis using flow cytometry. LNCaP or PC3 cells (3×10^6 cells) were seeded into T-175 flask in Medium A. Twenty-four hours later the medium was changed to that containing vehicle or test compounds. […] The cellular DNA was then analyzed by flow cytometry. DNA content of the cells was determined through flow cytometry using a FACScalibur cytometer (Becton Dickinson, San Jose, Calif.). Flow cytometric data files were collected and analyzed using the CELLQuest program (Becton Dickinson). […] Cell cycle distribution percentages of stained nuclei were calculated using Modfit LT software (Version 3.0, Verity Software House, Inc., Topsham, Me.). […]

CDKN1B mRNA = assay: RT-PCR CDKN1B mRNA in LNCaP cells; details: 48 hours treatment, 0-25 μM
Procedure: LNCaP cells cultured in 10% FBS were treated with 0, 2.5, 12.5, or 25 μM glyceollins for 48 h, total RNA isolated and mRNA levels of CDKN1A determined as described below. Results are expressed as mean+/−SD (n=3).
(§2) Determination of the effects of glyceollins on gene expression in LNCaP cells using RT-PCR. To examine the effects of glyceollins on cyclin inhibitor CDKN1A and B mRNA expression, LNCaP cells were plated in 6-well plates (0.25×10^6 cells/well) in Media A. After twenty-four hours the medium was removed and replaced with fresh medium containing vehicle, 1, 5, or 25 μM glyceollins or genistein. For experiments examining the effects of glyceollins on steroid hormone, LNCaP cells were plated in 6-well plates (0.25×10^6 cells/well) in Media A and switched to Media B containing 10% CDS 24 h after plating to minimize the effect of serum hormones. Twenty-four hours later, the medium was replaced with fresh medium containing 1 nM DHT or 17β-estradiol with or without 0-25 μM glyceollin. For all experiments fresh medium containing the test compounds was changed daily and cells were harvested for total RNA isolation using the Trizol method (Invitrogen) after 48 h. Taqman real-time PCR was used to quantify expression of the mRNA. […]

PC-3 cells = assay: Cell cycle analysis using flow cytometry (PI), PC-3; details: 25 μM, 72 hours
Procedure: PC-3 cells (3×10^6 cells) were plated in T-175 flask and treated with or without 25 μM of glyceollins or genistein for 72 hr, cell cycle analysis performed as described below. Results are expressed as % of total cells (n=3).
as §1

CDKN1A mRNA = assay: RT-PCR CDKN1A mRNA in LNCaP cells; details: 48 hours treatment, 10% FBS
Procedure: LNCaP cells cultured in 10% FBS were treated with 0, 2.5, 12.5, or 25 μM glyceollins for 48 h, total RNA isolated and mRNA levels of CDKN1A determined as described below. Results are expressed as mean +/−SD (n=3).
LNCaP cells cultured in 10% FBS were treated with 0, 1, 5, 12.5 or 25 μM genistein for 48 h, total RNA isolated and mRNA levels of CDKN1A determined as described below. Results are expressed as mean+/−SD (n=3).
as §2, with “For all experiments fresh medium containing the test compounds was changed daily and cells were harvested for total RNA isolation using the Trizol method (Invitrogen) after 48 h.” left out

With `O=c1c(-c2ccc(O)cc2)coc2cc(O)cc(O)c12` [genistein] the “effect on cell cycle progression in LNCaP cells” value (LNCaP cells) was “G1/G0 arrest”, the “effect on CDKN1B mRNA levels in LNCaP cells” value (CDKN1B mRNA) was “no changes” and the “G2/M blockage in PC-3 cells” value (PC-3 cells) was “lead to G2/M blockage”. For the same compound, the “concentration at which significant change/induction of CDKN1A mRNA is observed” value (CDKN1A mRNA) was 25 µM.
